In ChEMBL document CHEMBL1201862, “PubChem BioAssay data set” (2004):
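Step 1: Grow cells in 96-well plates. Step 2: Expose to compound for 48 hours at 5 concentrations. Step 3: Interpolate endpoints linearly; if unreached, use highest concentration. Abbreviation: GI50, concentration required for 50% inhibition of growth.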 Activity calls are given as the source filed them. Rule as the data show it: active = GI50 up to about 1.1 µM and inactive = higher.

Columns and labels:
Assay in all cases: growth of human tumour cells (NCI), 48 h
HT-29 = tested on: HT-29
MCF7 = tested on: MCF7
K562 = tested on: K562
PC-3 = tested on: PC-3
A498 = tested on: A498
HOP-92 = tested on: HOP-92
MDA-N = tested on: MDA-N
SW-620 = tested on: SW-620
M14 = tested on: M14
UO-31 = tested on: UO-31
MDA-MB-231 = tested on: MDA-MB-231
SK-MEL-2 = tested on: SK-MEL-2
Malme-3M = tested on: Malme-3M
IGROV-1 = tested on: IGROV-1
HOP-62 = tested on: HOP-62
CCRF-CEM = tested on: CCRF-CEM
NCI-H226 = tested on: NCI-H226
SF-539 = tested on: SF-539
SR = tested on: SR

Measured: GI50

C/C=C1/CC(C(=O)OC)N(C(=O)OCc2ccccc2)C1=S (stereo not drawn)
inactive: HT-29 > 100 µM | MCF7 > 100 µM | K562 > 100 µM | PC-3 > 100 µM | A498 > 100 µM | HOP-92 > 100 µM | MDA-N > 100 µM | SW-620 > 100 µM | M14 > 100 µM | UO-31 > 100 µM | MDA-MB-231 > 100 µM | SK-MEL-2 > 100 µM | Malme-3M > 100 µM | IGROV-1 > 100 µM | HOP-62 > 100 µM

COc1ccc(C2SC(=N)Nc3c2c(C)nn3C(=O)c2ccc(Cl)cc2)cc1 (stereo not drawn)
inactive: HT-29 > 10 µM | MCF7 > 10 µM | K562 > 10 µM | CCRF-CEM > 10 µM | PC-3 > 10 µM | HOP-92 > 10 µM | MDA-N > 10 µM | SW-620 > 10 µM | NCI-H226 > 10 µM | M14 > 10 µM | SF-539 > 10 µM | MDA-MB-231 > 10 µM | SK-MEL-2 > 10 µM | Malme-3M > 10 µM | IGROV-1 > 10 µM | HOP-62 > 10 µM

CCOC(=O)N/N=C(\Cc1ccc([N+](=O)[O-])cc1)OCC
inactive: HT-29 > 100 µM | MCF7 > 100 µM | K562 > 100 µM | CCRF-CEM > 100 µM | PC-3 > 100 µM | SR > 100 µM | HOP-92 > 100 µM | MDA-N > 100 µM | SW-620 > 100 µM | M14 > 100 µM | SF-539 > 100 µM | UO-31 > 100 µM | MDA-MB-231 > 100 µM | SK-MEL-2 > 100 µM | IGROV-1 > 100 µM | HOP-62 > 100 µM

O=Cc1cc(C(=O)OCc2ccccc2)n(S(=O)(=O)c2ccccc2)c1
inactive: HT-29 21.7 µM | MCF7 11.7 µM | K562 4.51 µM | CCRF-CEM 8.07 µM | PC-3 16.6 µM | SR 3.47 µM | MDA-N 5.31 µM | M14 14.8 µM | SF-539 12.7 µM | UO-31 12.6 µM | MDA-MB-231 37.7 µM | SK-MEL-2 16.8 µM | Malme-3M 30.5 µM | IGROV-1 25.9 µM | HOP-62 13.2 µM

C1CSCCSS[C@@H]2CCCCC2SC1 (stereo partly drawn)
inactive: HT-29 > 100 µM | MCF7 > 100 µM | K562 > 100 µM | CCRF-CEM > 100 µM | PC-3 > 100 µM | SR > 100 µM | HOP-92 29.2 µM | MDA-N > 100 µM | SW-620 > 100 µM | M14 > 100 µM | SF-539 > 100 µM | UO-31 78.9 µM | MDA-MB-231 > 100 µM | IGROV-1 > 100 µM | HOP-62 > 100 µM

Nc1nc(N)c2ncn(-c3ccc(Cl)c(Cl)c3)c2n1
inactive: HT-29 22.2 µM | MCF7 40.1 µM | CCRF-CEM 3.71 µM | PC-3 24.1 µM | A498 13.3 µM | HOP-92 52.7 µM | MDA-N 30.9 µM | SW-620 42.4 µM | NCI-H226 35.2 µM | M14 42.7 µM | SF-539 21 µM | UO-31 18.5 µM | MDA-MB-231 23.1 µM | SK-MEL-2 12.4 µM | Malme-3M 17.9 µM | IGROV-1 16.2 µM | HOP-62 29.6 µM

COc1ccc(-c2cc3c(c4cc(OC)ccc24)C(=O)OC3=O)cc1
inactive: HT-29 > 100 µM | MCF7 > 100 µM | K562 > 100 µM | CCRF-CEM > 100 µM | PC-3 > 100 µM | SR > 100 µM | HOP-92 87.3 µM | MDA-N 86.5 µM | SW-620 > 100 µM | NCI-H226 > 100 µM | M14 > 100 µM | UO-31 95.5 µM | MDA-MB-231 > 100 µM | SK-MEL-2 > 100 µM | Malme-3M > 100 µM | IGROV-1 > 100 µM | HOP-62 > 100 µM

c1ccc(-c2sc(-c3cccs3)cc2Cc2cccs2)cc1
inactive: HT-29 > 10 µM | MCF7 > 10 µM | K562 > 10 µM | CCRF-CEM > 10 µM | PC-3 > 10 µM | SR > 10 µM | HOP-92 > 10 µM | MDA-N > 10 µM | SW-620 > 10 µM | NCI-H226 > 10 µM | M14 > 10 µM | SF-539 > 10 µM | UO-31 > 10 µM | MDA-MB-231 > 10 µM | Malme-3M > 10 µM | IGROV-1 > 10 µM | HOP-62 > 10 µM
